The test deals with Zellen eines ösophago-gastralen Karzinoms oder eines Magenkarzinoms. The test can be described thus: Cell viability dose-response of single FLOT components on in vitro cultured patient tumour cells (Presto Blue). The format is cell-based. From the text: Die Konzentration der mindestens einen Komponente der Testzusammensetzung kann auf Basis von empirisch ermittelten Werten festgelegt werden. Zur empirischen Bestimmung von geeigneten Komponentenkonzentrationen für die Testzusammensetzung werden zunächst Zellen eines ösophago-gastralen Karzinoms, insbesondere eines Magenkarzinoms, von mehreren Patienten entnommen und diese Zellen jeweils separat bei physiologischen Bedingungen in vitro kultiviert. Dabei kann die Patientenkultur auf mehrere Vertiefungen einer Zellkulturplatte aufgeteilt werden. Die kultivierten Patientenzellen werden anschließend jeweils mit einer der Komponenten in jeweils vorgegebenen Konzentrationen in Kontakt gebracht und inkubiert. Das heißt, die die Patientenkulturen werden mit den jeweiligen Komponentenkonzentrationen behandelt. Da sich für Leucovorin selbst keine Wirkung auf die Zellen nachweisen lässt, kann Leucovorin als Komponente zur Bestimmung der Komponentenkonzentration ausgenommen werden. Die Behandlung kann in zwei Vorgehensvarianten unterschieden werden. Gemäß einer ersten Variante erfolgt die Behandlung einer Patientenkultur mit den Komponentenkonzentrationen der betreffenden Komponente beginnend mit der niedrigsten Komponentenkonzentration, wobei die Komponentenkonzentration jeweils nach einer vorgegebenen Inkubationszeit schrittweise oder kontinuierlich erhöht wird. Die Zellviabilität wird dabei nach vorgegebenen Inkubationszeiten bestimmt. Gemäß einer zweiten Variante, werden Patientenzellen enthaltene Vertiefungen jeweils mit einer konkreten Konzentration der jeweiligen Komponente behandelt und inkubiert, wobei die Zellviabilitäten nach einer vorgegebenen Inkubationszeit bestimmt werden. Auf diese Weise können mehrere Komponentenkonzentrationen verschiedener Konzentrationen gleichzeitig getestet werden.
Für jede Komponente 5-Fluorouracil, Oxaliplatin und Docetaxel, kann eine patientenspezifische mittlere inhibitorische Konzentration IC50 (IC50F, IC50O, IC50T,) ermittelt werden. Die IC50-Werte geben an, ab welcher Konzentration der Komponenten eine halbmaximale Wachstumshemmung der Patientenzellen erreicht ist. Anschließend wird aus den Werten der ermittelten patientenspezifischen mittleren inhibitorischen Konzentrationen (IC50F, IC50O, IC50T) für jede Komponente (5-Fluorouracil, Oxaliplatin und Docetaxel, (F, O, T)) ein inhibitorischer Konzentrations-Mittelwert (mIC50F, mIC50O, mIC50T) bestimmt. Der inhibitorische Konzentrations-Mittelwert mIC50 ist der Mittelwert aus der Gesamtheit der IC50-Werte einer der Komponenten (F, O, T). […]

“Also recorded” adds a separate entry of the source. Read-outs that look alike come from different tables or passages of the source.

`O=c1[nH]cc(F)c(=O)[nH]1` [5-FU, 5-Fluorouracil]: the IC50 (144 h, read-out: 5-FU-spezifische mittlere halbmaximale inhibitorische Konzentration mIC50F) worked out at 10.3 µM.
With `O=C1[O][Pt]2([NH][C@@H]3CCCC[C@H]3[NH]2)[O]C1=O` [Oxaliplatin], the IC50 (cell cultures of 13 patients, same procedure as for 5-FU, read-out: Oxaliplatin-spezifische mittlere halbmaximale inhibitorische Konzentration mIC50O) is 10.7 µM.
With `Nc1nc2c(c(=O)[nH]1)N(C=O)C(CNc1ccc(C(=O)N[C@@H](CCC(=O)O)C(=O)O)cc1)CN2` (stereo partly shown) [Leucovorin], the “Effekt auf die Zellviabilität der Patientenkulturen” value (single-agent tests) is “keine Wirkung; also recorded: keinen Effekt”.
Turning to `CC(=O)O[C@@]12CO[C@@H]1C[C@H](O)[C@@]1(C)C(=O)[C@H](O)C3=C(C)[C@@H](OC(=O)[C@H](O)[C@@H](NC(=O)OC(C)(C)C)c4ccccc4)C[C@@](O)([C@@H](OC(=O)c4ccccc4)[C@H]21)C3(C)C` [Docetaxel], the IC50 (cell cultures of 13 patients, same procedure as for 5-FU, read-out: Docetaxelspezifische mittlere halbmaximale inhibitorische Konzentration mIC50T) was 0.0012 µM.

Source of the values: patent publication EP4382907A1, “METHOD FOR PREDICTING A PATIENT-SPECIFIC RESPONSE TO THE FLOT CHEMOTHERAPY SCHEME” (Technische Universität Dresden, priority 2022, dated 2024).
